Assay results reported in US12692238B2, “Substituted pyridazinone herbicides” (FMC CORPORATION, priority 2020, dated 2026).

Assays:
Format in all cases: in vivo
[1] = system: foxtail, giant (giant foxtail, Setaria faberi); experiment: Test A preemergence, foxtail, giant; settings: 0 to 100 scale, 10 days
Procedure, shortened: (§1)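 Seeds sown in loam–sand blend received a directed soil spray preemergence; postemergence plants at 2 to 10 cm, one- to two-leaf stage, were sprayed. Compounds were formulated in non-phytotoxic solvent with surfactant. After 10 days in greenhouse, injury was rated visually versus untreated controls, 0 (no effect) to 100 (complete control).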

corn (Zea mays) [2] = experiment: Test A preemergence, corn; settings: 0 to 100 scale, 10 days
Procedure, shortened: as §1

[3] = system: wheat (Triticum aestivum); experiment: Test A postemergence, wheat; settings: 10 days
Procedure, shortened: as §1

corn (Zea mays) [4] = experiment: Test A postemergence, corn; settings: 10 days
Procedure, shortened: as §1

[5] = system: sedge, umbrella (small-flower umbrella sedge, Cyperus difformis); experiment: Test B flooded paddy test, sedge, umbrella; settings: 250 g ai/ha, Flood; visually evaluated after 10 to 14 days
Procedure, shortened: (§2)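 Compound is introduced straight into paddy water on flooded pots (3 cm) containing 2-leaf-stage plants. Controls are run alongside, and all plants are rated by eye on a 0–100 scale after 10 to 14 days under glass.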

[6] = system: wheat (Triticum aestivum); experiment: Test A preemergence, wheat; settings: 125 g ai/ha, 0 to 100 scale, 10 days
[7] = system: ragweed (common ragweed, Ambrosia artemisiifolia); experiment: Test A postemergence, ragweed; settings: 10 days
Procedure, shortened: as §1

[8] = system: horseweed (Erigeron canadensis); experiment: Test A postemergence, horseweed; settings: 10 days
Procedure, shortened: as §1

[9] = system: goosegrass (Eleusine indica); experiment: Test A preemergence, goosegrass; settings: 0 to 100 scale, 10 days
Procedure, shortened: as §1

[10] = system: ryegrass, Italian (Italian ryegrass, Lolium multiflorum); experiment: Test A preemergence, ryegrass, Italian; settings: 0 to 100 scale, 10 days
Procedure, shortened: as §1

rice (Oryza sativa) = experiment: Test B flooded paddy test, rice; settings: 250 g ai/ha, Flood; visually evaluated after 10 to 14 days
Procedure, shortened: as §2

[11] = system: foxtail, giant (giant foxtail, Setaria faberi); experiment: Test A postemergence, foxtail, giant; settings: 10 days
Procedure, shortened: as §1

[12] = system: ryegrass, Italian (Italian ryegrass, Lolium multiflorum); experiment: Test A postemergence, ryegrass, Italian; settings: 10 days
Procedure, shortened: as §1

soybean (Glycine max) [13] = experiment: Test A postemergence, soybean; settings: 10 days
Procedure, shortened: as §1

[14] = system: blackgrass (Alopecurus myosuroides); experiment: Test A preemergence, blackgrass; settings: 0 to 100 scale, 10 days
Procedure, shortened: as §1

[15] = system: ducksalad (Heteranthera limosa); experiment: Test B flooded paddy test, ducksalad; settings: 250 g ai/ha, Flood; visually evaluated after 10 to 14 days
Procedure, shortened: as §2

[16] = system: galium (catchweed bedstraw, Galium aparine); experiment: Test A postemergence, galium; settings: 10 days
Procedure, shortened: as §1

[17] = system: blackgrass (Alopecurus myosuroides); experiment: Test A postemergence, blackgrass; settings: 10 days
Procedure, shortened: as §1

[18] = system: oat, wild (wild oat, Avena fatua); experiment: Test A preemergence, oat, wild; settings: 0 to 100 scale, 10 days
Procedure, shortened: as §1

kochia (Bassia scoparia) [19] = experiment: Test A preemergence, kochia; settings: 0 to 100 scale, 10 days
Procedure, shortened: as §1

[20] = system: goosegrass (Eleusine indica); experiment: Test A postemergence, goosegrass; settings: 10 days
Procedure, shortened: as §1

[21] = system: oat, wild (wild oat, Avena fatua); experiment: Test A postemergence, oat, wild; settings: 10 days
Procedure, shortened: as §1

[22] = system: palmer amaranth (pigweed, palmer, Amaranthus palmeri); experiment: Test A preemergence, palmer amaranth; settings: 0 to 100 scale, 10 days
Procedure, shortened: as §1

kochia (Bassia scoparia) [23] = experiment: Test A postemergence, kochia; settings: 10 days
Procedure, shortened: as §1

[24] = system: barnyardgrass (Echinochloa crus-galli); experiment: Test B flooded paddy test, barnyardgrass; settings: 250 g ai/ha, Flood; visually evaluated after 10 to 14 days
Procedure, shortened: as §2

[25] = system: ragweed (common ragweed, Ambrosia artemisiifolia); experiment: Test A preemergence, ragweed; settings: 0 to 100 scale, 10 days
Procedure, shortened: as §1

soybean (Glycine max) [26] = experiment: Test A preemergence, soybean; settings: 0 to 100 scale, 10 days
Procedure, shortened: as §1

[27] = system: palmer amaranth (pigweed, palmer, Amaranthus palmeri); experiment: Test A postemergence, palmer amaranth; settings: 10 days
Procedure, shortened: as §1

[28] = 31 g ai/ha, postemergence, 0 to 100 scale (0 no effect, 100 complete control)
[29] = Postemergence, 125 g ai/ha, 0 to 100 scale

Cc1ccc2cc3ccc(F)cc3c(-c3c(OCOC(=O)C(C)(C)C)c(C)nn(C)c3=O)c2c1 [Compound 21]
10: Plant response rating, Oat, Wild [21, 28]
40: Plant response rating, Corn (corn (Zea mays) [4]; [29]) | Plant response rating, Goosegrass ([9]; 31 g ai/ha) | Plant response rating, Ryegrass, Italian ([10]; 31 g ai/ha) | Plant response rating, Blackgrass ([14]; 125 g ai/ha) | Plant response rating, Oat, Wild ([18]; 125 g ai/ha) | Plant response rating, Oat, Wild [21, 29]
50: Plant response rating, Ragweed ([25]; 31 g ai/ha)
98: Plant response rating, Barnyardgrass (0 to 100 scale where 0 is no effect and 100 is complete control) [24]
20: Plant response rating, Blackgrass [17, 28] | Plant response rating, Blackgrass [17, 29] | Plant response rating, Goosegrass [20, 28]
0: Plant response rating, Corn (corn (Zea mays) [2]; 31 g ai/ha) | Plant response rating, Corn (corn (Zea mays) [2]; 125 g ai/ha) | Plant response rating, Wheat [3, 28] | Plant response rating, Wheat [3, 29] | Plant response rating, Wheat [6] | Plant response rating, Blackgrass ([14]; 31 g ai/ha) | Plant response rating, Oat, Wild ([18]; 31 g ai/ha) | Plant response rating, Soybean (soybean (Glycine max) [26]; 31 g ai/ha) | Plant response rating, Soybean (soybean (Glycine max) [26]; 125 g ai/ha)
90: Plant response rating, Ryegrass, Italian ([10]; 125 g ai/ha) | Plant response rating, Foxtail, Giant [11, 28] | Plant response rating, Kochia (kochia (Bassia scoparia) [23]; [28]) | Plant response rating, Ragweed ([25]; 125 g ai/ha)
100: Plant response rating, Foxtail, Giant ([1]; 125 g ai/ha) | Plant response rating, Sedge, Umbrella (0 to 100 scale where 0 is no effect and 100 is complete control) [5] | Plant response rating, Ragweed [7, 28] | Plant response rating, Ragweed [7, 29] | Plant response rating, Horseweed [8, 28] | Plant response rating, Horseweed [8, 29] | Plant response rating, Foxtail, Giant [11, 29] | Plant response rating, Ryegrass, Italian [12, 29] | Plant response rating, Soybean (soybean (Glycine max) [13]; [28]) | Plant response rating, Soybean (soybean (Glycine max) [13]; [29]) | Plant response rating, Ducksalad (0 to 100 scale where 0 is no effect and 100 is complete control) [15] | Plant response rating, Galium [16, 28] | Plant response rating, Galium [16, 29] | Plant response rating, Kochia (kochia (Bassia scoparia) [19]; 31 g ai/ha) | Plant response rating, Kochia (kochia (Bassia scoparia) [19]; 125 g ai/ha) | Plant response rating, Pigweed, Palmer ([22]; 31 g ai/ha) | Plant response rating, Pigweed, Palmer ([22]; 125 g ai/ha) | Plant response rating, Kochia (kochia (Bassia scoparia) [23]; [29]) | Plant response rating, Pigweed, Palmer [27, 28] | Plant response rating, Pigweed, Palmer [27, 29]
80: Plant response rating, Foxtail, Giant ([1]; 31 g ai/ha) | Plant response rating, Ryegrass, Italian [12, 28]
30: Plant response rating, Corn (corn (Zea mays) [4]; [28]) | Plant response rating, Goosegrass [20, 29]
60: Plant response rating, Goosegrass ([9]; 125 g ai/ha) | Plant response rating, Rice (0 to 100 scale where 0 is no effect and 100 is complete control) (rice (Oryza sativa))
